# Measurements taken from patent US4476117A, “Dimers of peptide amides” (Imperial Chemical Industries PLC, priority 1982, dated 1984).
# Numbered stars: 1 amine (or outer) side, 2 acyl side, 3 side chain; on linkers, the order of the positions; unused ones are H or OH. Bridge positions count the residues as written; N and C are the ends. Peptide text beside a SMILES is read from it. I, II: the chains in the order shown. * marks the point of attachment. Tyr(Nα,Nα-allyl2) = C=CCN(CC=C)[C@@H](Cc1ccc(O)cc1)C(=O)*; Ethylenediamine = C(CN[*:2])N[*:1]
# Assay: tolerance in the rat, subcutaneous dose
# Type: in vivo
# Method: As an indication of the lack of toxicity of a specific compound of the invention, namely [diallyl-Tyr-Gly-Gly-Phe-Leu-NH-CH2 -]2, that compound is tolerated in the rat at a subcutaneous dose of at least 15 mg./kg.
smiles,measurement,value
"C=CCN(CC=C)[C@@H](Cc1ccc(O)cc1)C(=O)NCC(=O)NCC(=O)N[C@@H](Cc1ccccc1)C(=O)N[C@@H](CC(C)C)C(=O)NCCNC(=O)[C@H](CC(C)C)NC(=O)[C@H](Cc1ccccc1)NC(=O)CNC(=O)CNC(=O)[C@H](Cc1ccc(O)cc1)N(CC=C)CC=C [Example 1, (diallyl-Tyr-Gly-Gly-Phe-Leu-NH-CH2 -)2 bis-trifluoroacetate] (I: {Tyr(Nα,Nα-allyl2)}-GGFL / II: {Tyr(Nα,Nα-allyl2)}-GGFL; linker I:C-II:C via Ethylenediamine)",tolerated subcutaneous dose,at least 15 mg./kg.
